This note sets out measurements from US20040147458A1, “Compositions to reduce exercise-induced swelling of joints” (priority 2003, published 2004).

One data set relates to Standard Bred horses. Nature of the data set: Joint swelling after racing in Standard Bred horses given ribose before and/or after each race. The format is in vivo, horse. The source says: The dosage given should be adjusted carefully to each animal. It has been observed that the swelling reaction is variable; some horses have a great deal of swelling after each race and others are less affected. […] Beginning with a dose of 20 gm ribose, the dosages were adjusted upward. […] Although the weight of the horse was not a factor, the state of nourishment was important. Less well-nourished horses require less ribose for the prophylaxis and therapy of joint swelling. In those horses tested by Applicant, which had been maintained on the ribose-containing supplement, it was seen that a dosage of about 100 or 200 grams of ribose was required to prevent or reduce swelling. In all mammals it may be seen that increasing doses of ribose are necessary to provide the benefit of this invention. This seeming paradox may be due to the fact that mammals receiving ribose as a maintenance dietary supplement have more energy, run faster and thus sustain more acute exercise-related trauma to the joints. It must be stressed that whether or not horses are maintained on a ribose-containing dietary supplement such as that of Applicant, in order to obtain the benefits of this invention, the dosage and timing disclosed above must be followed. Twelve Standard Bred horses, three to eight years of age, were tested. […] The swelling was treated either with cold packs or rest. Time to recovery was approximately one hour to several days. In general, the horses were rested for three days and then exercised by jogging each day, running two miles and then increasing the miles to six to eight. The test horses were put on a schedule of ribose administration in a dosage of 40 gm before each race. […] Therefore, the standard procedure was to administer the optimal dose of ribose both before and after each race. […] Time to recovery of these animals was about ten hours. […] After the horses had been on ribose maintenance for a time, all required higher doses of ribose, up to 100 gm a dose given both before and after racing, in order to show a benefit.

For data set [1], the system named is Racing dogs, generally greyhounds. Nature of the data set: Joint swelling after racing in racing dogs given ribose before the race. Format: in vivo, dog. Here is the method: Racing dogs, generally greyhounds, are also susceptible to swollen joints after racing. […] The observed dosage for a horse was approximately 100 to 300 mg per kilogram body weight. Based on this observation, a greyhound weighing 65 pounds will benefit from a dose of about two to twelve grams of ribose which is approximately 65 to 300 mg per kilogram. The dosage should be given just before each race or hard workout. […] Administration can be by any convenient means. Ribose has a slightly sweet taste and dogs will readily drink a solution of ribose in water. Alternatively, the ribose solution can be sprayed into the dog's mouth for buccal absorption. […] As for horses, the ribose should not be given more than half an hour before the race or with other food or anything else that would delay absorption.

In another data set the test system is Humans. Description: Swollen, sore knee joints in human subjects taking ribose. Format: in vivo. The source says: Non-runners can also experience swelling in the joints. One subject who works in construction and does a lot of lifting frequently has swollen knees with accompanying soreness. […] A heavy equipment operator has suffered from soreness in their knees for several years following an injury to the joint. […] The third subject is a competitive “strong man” who competes in such trials as lifting heavy rocks and pulling buses. In the course of their training and competition, they have stressed their knee joints, which are frequently swollen and sore. […] On one occasion, they ingested a dose of 30 grams of ribose and the soreness in their knees disappeared within twenty minutes.

Turning to `O=C[C@H](O)[C@H](O)[C@H](O)CO` [ribose, D-Ribose], the “joint swelling after race” value in the data set on Standard Bred horses (40 gm ribose before each race only, twelve horses) is “most of the animals still showed some joint swelling”; with Standard Bred horses (optimal dose of ribose both before and after each race), “the majority of the animals showed no swelling”. Moreover, the time to recovery entry with Standard Bred horses (animals with moderate swelling despite ribose before and after race, cold packs applied) is reported as “about ten”. Also, the resumption of training result in the data set on Standard Bred horses (compared with animals not given ribose before and after racing) is given as “able to resume training earlier”. Further, the “benefit on swelling, ribose alone” value in the data set on Standard Bred horses (easily absorbed dose of ribose alone given immediately before and immediately after each race) was “additional benefit was seen”. Also, the “dose required to show a benefit” value with Standard Bred horses (horses on ribose maintenance for a time, dose given both before and after racing) is on record as “up to 100 gm”. Besides, the “fraction of animals showing moderate swelling” value with Standard Bred horses (optimal dose of ribose both before and after each race, cold packs applied) is on record as “About one-third”. For the same compound, the side-effects entry in the data set on Standard Bred horses (ribose at suggested levels) is on record as “no side-effects”. Besides, the “attitude of the horses after a race (subjective measure)” value in the data set with Standard Bred horses (ribose given only before the race) was “willing to play and move around their stalls”. The “prevention or reduction of joint swelling” value in data set [1] (high dose before the race only) is “adequate in most cases to prevent or reduce joint swelling”. Besides, the “expected benefit on swollen joints after racing” value in data set [1] (proper dosage of ribose, about two to twelve grams for a 65 pound greyhound) is reported as “expected to give the same benefit as is shown for horses”. Moreover, the “symptoms of swollen and sore knee joints” value in the data set on Humans (competitive strong man, doses of five to ten grams) is “symptoms are lessened”. Besides, the “time until soreness in knees disappeared” value in the data set with Humans (competitive strong man, single dose of 30 grams) is reported as “twenty”. Also, the knee soreness result in the data set on Humans (construction worker with swollen knees, dose of about five grams) was “soreness subsides”. For the same compound, the knee achiness result in the data set with Humans (heavy equipment operator, soreness after joint injury, five gram dose) is “effective to lessen the achiness”.
